According to article PMC11277004, “Di- and Triselenoesters—Promising Drug Candidates for the Future Therapy of Triple-Negative Breast Cancer” (International Journal of Molecular Sciences, 2024):
Read-outs that look alike come from different tables or passages of the source.

How the values were obtained:
[1] = tested on: MCF-10A normal human breast epithelial cells; assay: MTT cytotoxicity test, MCF-10A; format: cell-based; conditions: 24 h incubation, read-out: IC50, cell viability (MTT)
Procedure: MCF-7 and MDA-MB-231 human breast cancer cell lines, as well as MCF-10A normal human breast epithelial cells, were acquired from the American Type Culture Collection (ATCC, Manassas, VA, USA). The characteristics of the breast cancer cell lines used in this study are compared in Table 1. MCF-7 and MDA-MB-231 cells were cultured in Dulbecco’s modified Eagle’s medium (Gibco, San Diego, CA, USA), while MCF-10A cells were cultured in the mammary epithelial cell growth medium with the following supplements: BPE, hEGF, insulin, hydrocortisone, GA-1000 (Lonza, Basel, Switzerland). All media were complemented by 10% of fetal bovine serum (FBS) and 1% of the following antibiotics: penicillin and streptomycin (both Gibco, San Diego, CA, USA). The cells were maintained in an incubator that provides the optimal growth conditions for the cell culture: 5% CO2, 37 °C, and humidity in a range of 90–95%. The cells were cultured in 100 mm plates (Sarstedt, Newton, NC, USA). Subsequently, after obtaining a subconfluent cell culture, the cells were detached with 0.05% trypsin with 0.02% EDTA (Gibco, San Diego, CA, USA). […] In this study, cells that obtained 80% confluence were used. The MTT assay was used to determine the cytotoxic effects of the compounds in the study on MCF-7 and MDA-MB-231 breast cancer cells as well as MCF-10A normal human breast epithelial cells based on Carmichael’s method. […] After this time, the medium was removed, and the cell monolayer was washed with warm phosphate-buffered saline (PBS) without calcium and magnesium. In the next step, PBS and MTT solution in PBS (5 mg/mL) were added to each well to obtain a final MTT concentration of 0.5 mg/mL, and then the cells were incubated for 4 h (37 °C temperature, 5% CO2, 90–95% humidity). After the incubation period, the contents of each well were removed, 1 mL of DMSO was added to dissolve the formazan, and then the plate with the added DMSO was mixed for 5–10 min on a microplate shaker (Boeco, Hamburg, Germany). Then, 10 µL of Sorensen’s glycine buffer (a solution of 0.1 M glycine and 0.1 M sodium chloride adjusted to pH 10.5 with 0.1 M sodium hydroxide) was added. The absorbance of the obtained solution was immediately measured at a wavelength of λ = 570 nm using a Thermo Scientific Evolution 201 UV–VIS spectrophotometer (Thermo Fisher Scientific, Waltham, MA, USA). The absorbance result obtained in the control cells (without the addition of the tested compounds) was taken as 100%, while the viability of cells incubated with the tested compounds was presented as a percentage of the control value.

caspase 9 = assay: Caspase 9 activity (FAM-FLICA, flow cytometry), MCF-7; format: cell-based, human; conditions: 24 h
Procedure: The FAM-FLICA® Caspase Assay kits (all from ImmunoChemistry Technologies, Bloomington, MN, USA) and flow cytometer (BD FACSCanto II, BD Biosciences Systems, San Jose, CA, USA) were used to evaluate the activity of caspase 3/7, 8, and 9. MCF-7 and MDA-MB-231 cells were treated with selenoesters under the study (EDAG-1 and EDAG-8) and a reference agent (cisplatin) at two different concentrations (0.5 and 1 µM; treatment duration: 24 h). Following this, cells were collected, washed twice with cold PBS, and resuspended in an Apoptosis Wash Buffer to a final concentration of 5 × 10^5 cells/mL. In the next step, 290 µL each of cell suspension was taken and transferred into tubes. Then 10 µL of FLICA solution diluted immediately before use (1:5 v/v, using PBS) was added to the cells, mixed by pipetting, and incubated in the dark for 1 h at 37 °C. After this time, the cells were washed twice with 2 mL Apoptosis Wash Buffer, centrifuged, and resuspended in 300 µL of the buffer. Thus, prepared samples were immediately analyzed using a BD FACSCanto II flow cytometer (10,000 events) with the FACSDiva 6.0 software (both from BD Biosciences Systems, San Jose, CA, USA). The equipment calibration was carried out using the BD Cytometer Setup and Tracking Beads (BD Biosciences, San Diego, CA, USA).

p53 = p53 protein expression by flow cytometry, MDA-MB-231; format: cell-based, human; conditions: 24 h
Procedure: (§1) For this purpose, Akt (PE), Bax (FITC), Bcl-2 (Alexa Fluor® 647), LC3A/B (Alexa Fluor® 488), and p53 (Alexa Fluor® 488) antibodies conjugated to different fluorochromes (all from Cell Signaling Technology, Beverly, MA, USA) were utilized. Each assay was performed according to the manufacturer's protocol available on their website. After incubation with the tested compounds, the cells were centrifuged, resuspended in 4% formaldehyde (100 μL/1 × 10^6 cells), and fixed for 15 min at room temperature. Afterward, to remove the formaldehyde, the cells were washed by centrifugation with excess PBS and the permeabilization step was triggered. For this purpose, ice-cold 90% methanol was added to the pre-chilled cell pellet, gently vortexed, and incubated for 1 h on ice. Later, the cells were washed by centrifugation with excess PBS again, resuspended in 100 μL of 1:100 diluted primary antibody (stain buffer was used for dilution), and incubated for 1 h at room temperature in the dark. After incubation, the cells were washed, resuspended in 300 μL PBS, and immediately tested with a flow cytometer (BD FACSCanto II, BD Biosciences Systems, San Jose, CA, USA; 10,000 events measured). The obtained results were analyzed using the FACSDiva 6.0 software (BD Biosciences Systems, San Jose, CA, USA). In the case of the p53 protein, the MRF values were obtained first during the flow cytometer readout utilizing FACSDiva software and later analyzed using FCS Express 7 (De Novo Software, Pasadena, CA, USA). The equipment calibration was performed using the BD Cytometer Setup and Tracking Beads (BD Biosciences, San Diego, CA, USA).

LC3A/B = LC3A/B protein level by flow cytometry, MCF-7; format: cell-based, human; conditions: 24 h
Procedure: as §1

Row | Compound | IC50 ([1]; Homo sapiens) | Active caspase 9 ± SD (cells) (caspase 9; MCF-7, 0.5 μM) | Active caspase 9 ± SD (cells) (caspase 9; MCF-7, 1 μM) | p53 protein expression, MRF (p53; MDA-MB-231, 0.5 μM) | p53 protein expression, MRF (p53; MDA-MB-231, 1 μM) | LC3A/B positive cells ± SD (LC3A/B; MCF-7, 0.5 μM) | LC3A/B positive cells ± SD (LC3A/B; MCF-7, 1 μM) | IC50 [1]
1 | CC(=O)C[Se]C(=O)c1ccc(C(=O)[Se]CC(C)=O)cc1 [EDAG-1, Se,Se-bis(2-oxopropyl) benzene-1,4-bis(carboselenoate)] | 0.41 ± 0.03 µM | 7.1 ± 0.7% | 12.8 ± 1.4% | 559.3 ± 63.1 | 593.0 ± 10.8 | 9.9 ± 0.9% | 12.0 ± 1.4% | –
2 | CC(=O)C[Se]C(=O)c1cc(C(=O)[Se]CC(C)=O)cc(C(=O)[Se]CC(C)=O)c1 [EDAG-8, Se,Se,Se-tris-(2-oxopropyl) benzene-1,3,5-tris-(carboxyselenoate)] | 0.51 ± 0.02 µM | 15.5 ± 0.5% | 22.8 ± 2.4% | 624.8 ± 49.7 | 661.5 ± 18.6 | 11.9 ± 1.1% | 17.4 ± 1.3% | –
3 | N.N.[Cl][Pt][Cl] [Cisplatin, reference compound] | – | 5.9 ± 0.1% | 6.1 ± 0.6% | 375.5 ± 3.5 | 423.5 ± 2.1 | 3.3 ± 0.5% | 3.5 ± 0.4% | > 5 µM
